Measured values from patent publication US6737383B1, “Herbicidal oxadiazolidines” (priority 1999, dated 2004).

Tests used:
[1] = tested on: cocklebur; assay: Test B pre/postemergence cocklebur; type: in vivo, Xanthium strumarium
Outline: (§1)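 Test chemicals in a non-phytotoxic solvent mixture with surfactant were sprayed preemergence onto planted seeds and postemergence onto plants 2 to 18 cm tall (1- to 4-leaf stage). After twelve to sixteen days in a greenhouse, injury was visually rated against untreated controls from 0 (no effect) to 10 (complete control).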

[2] = tested on: corn; assay: Test B pre/postemergence corn; type: in vivo, Zea mays
Outline: as §1

[3] = tested on: bedstraw; assay: Test B pre/postemergence bedstraw; type: in vivo, Galium aparine
Outline: as §1

[4] = tested on: duck salad; assay: Test B flood test duck salad; type: in vivo, Heteranthera limosa
Outline: (§2)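 Plants were grown to the 2-leaf stage before treatment with test chemical, then held in a greenhouse for twelve to sixteen days. Injury was visually rated against untreated controls on a 0–10 scale, where 0 is no effect and 10 is complete control.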

[5] = tested on: wheat; assay: Test B pre/postemergence wheat; type: in vivo, Triticum aestivum
Outline: as §1

[6] = tested on: wild oat; assay: Test B pre/postemergence wild oat; type: in vivo, Avena fatua
Outline: as §1

[7] = tested on: rice; assay: Test B flood test rice; type: in vivo, Oryza sativa
Outline: as §2

[8] = tested on: pigweed; assay: Test B pre/postemergence pigweed; type: in vivo, Amaranthus retroflexus
Outline: as §1

[9] = tested on: soybean; assay: Test B pre/postemergence soybean; type: in vivo, Glycine max
Outline: as §1

[10] = tested on: rape; assay: Test B pre/postemergence rape; type: in vivo, Brassica napus
Outline: as §1

[11] = tested on: surinam grass; assay: Test B pre/postemergence surinam grass; type: in vivo, Brachiaria decumbens
Outline: as §1

[12] = tested on: purple nutsedge; assay: Test B pre/postemergence purple nutsedge; type: in vivo, Cyperus rotundus
Outline: as §1

[13] = tested on: velvetleaf; assay: Test B pre/postemergence velvetleaf; type: in vivo, Abutilon theophrasti
Outline: as §1

[14] = tested on: giant foxtail; assay: Test B pre/postemergence giant foxtail; type: in vivo, Setaria faberii
Outline: as §1

[15] = tested on: smallflower flatsedge; assay: Test B flood test smallflower flatsedge; type: in vivo, Cyperus difformis
Outline: as §2

[16] = tested on: sugar beet; assay: Test B pre/postemergence sugar beet; type: in vivo, Beta vulgaris
Outline: as §1

[17] = Postemergence, Rate 125 g/ha, scale 0 to 10, 0 is no effect, 10 is complete control
[18] = Preemergence, Rate 62 g/ha, scale of 0 to 10 where 0 is no effect and 10 is complete control
[19] = Preemergence, Rate 250 g/ha, scale of 0 to 10 where 0 is no effect and 10 is complete control
[20] = Preemergence, Rate 500 g/ha, scale of 0 to 10 where 0 is no effect and 10 is complete control
[21] = Rate 62 g/ha, Postemergence, scale 0 to 10 (0 no effect, 10 complete control)
[22] = Rate 500 g/ha, Postemergence, scale 0 to 10, 0 no effect, 10 complete control
[23] = Rate 250 g/ha, Postemergence, scale of 0 to 10 where 0 is no effect and 10 is complete control
[24] = Rate 62 g/ha, headed Pre-emergence (flood test species), scale 0 to 10 (0 no effect, 10 complete control)
[25] = Rate 125 g/ha, Pre-emergence, flood test species, scale 0 to 10 where 0 is no effect and 10 is complete control
[26] = Rate 250 g/ha, Pre-emergence, flood-test species, scale 0 to 10, 0 is no effect, 10 is complete control
[27] = Rate 500 g/ha, Pre-emergence, flood test species, scale 0 to 10 (0 no effect, 10 complete control)

SMILES: Cc1c(-n2c(=O)on(C(=O)N(c3ccc(F)cc3)C(C)C)c2=O)ccc2ccccc12 [Compound 338]
- Plant response rating, Cocklebur [1, 17]: 0
- Cocklebur plant response rating [1, 18]: 0
- Cocklebur plant response rating (0 to 10 scale) ([1]; Preemergence, Rate 125 g/ha): 0
- Cocklebur plant response rating [1, 19]: 0
- Cocklebur plant response rating [1, 20]: 0
- Cocklebur plant response rating [1, 21]: 0
- Plant response rating, Cocklebur [1, 22]: 0
- Plant response rating, Corn [2, 17]: 0
- Corn plant response rating [2, 18]: 0
- Corn plant response rating (0 to 10 scale) ([2]; Preemergence, Rate 125 g/ha): 0
- Corn plant response rating [2, 19]: 0
- Corn plant response rating [2, 20]: 0
- Corn plant response rating [2, 21]: 0
- Plant response rating, Corn [2, 22]: 0
- Plant response rating, Bedstraw [3, 17]: 2
- Bedstraw plant response rating [3, 18]: 0
- Bedstraw plant response rating (0 to 10 scale) ([3]; Preemergence, Rate 125 g/ha): 0
- Bedstraw plant response rating [3, 19]: 0
- Bedstraw plant response rating [3, 20]: 0
- Bedstraw plant response rating [3, 21]: 0
- Plant response rating, Bedstraw [3, 23]: 2
- Plant response rating, Bedstraw [3, 22]: 5
- Ducksalad plant response rating [4, 24]: 0
- Ducksalad plant response rating [4, 25]: 0
- Ducksalad plant response rating [4, 26]: 0
- Ducksalad plant response rating [4, 27]: 0
- Plant response rating, Wheat [5, 17]: 0
- Wheat plant response rating [5, 18]: 0
- Wheat plant response rating (0 to 10 scale) ([5]; Preemergence, Rate 125 g/ha): 0
- Wheat plant response rating [5, 19]: 0
- Wheat plant response rating [5, 20]: 0
- Wheat plant response rating [5, 21]: 0
- Plant response rating, Wheat [5, 22]: 0
- Plant response rating, Wild oats [6, 17]: 0
- Wild oats plant response rating [6, 18]: 0
- Wild oats plant response rating (0 to 10 scale) ([6]; Preemergence, Rate 125 g/ha): 0
- Wild oats plant response rating [6, 19]: 0
- Wild oats plant response rating [6, 20]: 0
- Wild oats plant response rating [6, 21]: 0
- Plant response rating, Wild oats [6, 22]: 0
- Rice plant response rating [7, 24]: 0
- Rice plant response rating [7, 25]: 0
- Rice plant response rating [7, 26]: 0
- Rice plant response rating [7, 27]: 0
- Plant response rating, Redroot pigweed [8, 17]: 0
- Redroot pigweed plant response rating [8, 18]: 0
- Redroot pigweed plant response rating (0 to 10 scale) ([8]; Preemergence, Rate 125 g/ha): 0
- Redroot pigweed plant response rating [8, 19]: 0
- Redroot pigweed plant response rating [8, 20]: 0
- Redroot pigweed plant response rating [8, 21]: 0
- Plant response rating, Redroot pigweed [8, 22]: 0
- Plant response rating, Soybean [9, 17]: 1
- Soybean plant response rating [9, 18]: 0
- Soybean plant response rating (0 to 10 scale) ([9]; Preemergence, Rate 125 g/ha): 0
- Soybean plant response rating [9, 19]: 0
- Soybean plant response rating [9, 20]: 0
- Soybean plant response rating [9, 21]: 1
- Plant response rating, Soybean [9, 22]: 2
- Plant response rating, Rape [10, 17]: 0
- Rape plant response rating [10, 18]: 0
- Rape plant response rating (0 to 10 scale) ([10]; Preemergence, Rate 125 g/ha): 0
- Rape plant response rating [10, 19]: 0
- Rape plant response rating [10, 20]: 0
- Rape plant response rating [10, 21]: 0
- Plant response rating, Rape [10, 22]: 0
- Plant response rating, B. signalgrass [11, 17]: 0
- B. signalgrass plant response rating [11, 18]: 0
- B. signalgrass plant response rating (0 to 10 scale, 0 is no effect, 10 is complete control) ([11]; Preemergence, Rate 125 g/ha): 0
- B. signalgrass plant response rating [11, 19]: 0
- B. signalgrass plant response rating [11, 20]: 0
- B. signalgrass plant response rating [11, 21]: 0
- Plant response rating, B. signalgrass [11, 23]: 0
- Plant response rating, B. signalgrass [11, 22]: 0
- Plant response rating, Nutsedge [12, 17]: 0
- Nutsedge plant response rating [12, 18]: 0
- Nutsedge plant response rating (0 to 10 scale) ([12]; Preemergence, Rate 125 g/ha): 0
- Nutsedge plant response rating [12, 19]: 0
- Nutsedge plant response rating [12, 20]: 0
- Nutsedge plant response rating [12, 21]: 0
- Plant response rating, Nutsedge [12, 22]: 0
- Plant response rating, Velvetleaf [13, 17]: 0
- Velvetleaf plant response rating [13, 18]: 0
- Velvetleaf plant response rating (0 to 10 scale) ([13]; Preemergence, Rate 125 g/ha): 0
- Velvetleaf plant response rating [13, 19]: 0
- Velvetleaf plant response rating [13, 20]: 0
- Velvetleaf plant response rating [13, 21]: 0
- Plant response rating, Velvetleaf [13, 22]: 0
- Plant response rating, Giant foxtail [14, 17]: 0
- Giant foxtail plant response rating [14, 18]: 0
- Giant foxtail plant response rating (0 to 10 scale) ([14]; Preemergence, Rate 125 g/ha): 0
- Giant foxtail plant response rating [14, 19]: 0
- Giant foxtail plant response rating [14, 20]: 9
- Giant foxtail plant response rating [14, 21]: 0
- Plant response rating, Giant foxtail [14, 22]: 0
- S. Flatsedge plant response rating [15, 24]: 0
- S. Flatsedge plant response rating [15, 25]: 0
- S. Flatsedge plant response rating [15, 26]: 0
- S. Flatsedge plant response rating [15, 27]: 0
- Plant response rating, Sugarbeets [16, 17]: 0
- Sugarbeets plant response rating [16, 18]: 0
- Sugarbeets plant response rating (0 to 10 scale) ([16]; Preemergence, Rate 125 g/ha): 0
- Sugarbeets plant response rating [16, 19]: 0
- Sugarbeets plant response rating [16, 20]: 0
- Sugarbeets plant response rating [16, 21]: 0
- Plant response rating, Sugarbeets [16, 22]: 0
